Experimental data reported in patent publication US7402611B1, “Use of amino acids for making medicines for treating to insulin-resistance” (Innodia Inc., priority 1999, dated 2008).
Entries after “also recorded” stand apart in the source; their conditions may differ.

What was measured:
Water solubility = format: physicochemical
[1] = tested on: phosphatase activity associated with IRS-1; assay: Phosphatase activity associated with IRS-1 in the liver of a normal rat; format: biochemical; conditions: 200 μmol/1, p<0.05
Protocol: The phosphatase activity was measured on the immunoprecipitates carried out with the anti-IRS-1 antibody and insulin anti-receptor. The solubilisation protocol is the same as that for PI 3-kinase following the methodology described by Taouis et al. (J. Biol. Chem., 269, 14912, 1994). After immunoprecipitation, the phosphatase activity was measured according to the method described by Chen. et al. (J. Biol. Chem., 272, 8026, 1997). With the aim of better locating the action site of the 4-OH-Ile, its impact on phosphatase activity was studied. The phosphatase activity associated with IRS-1 was measured.

PI 3-kinase [2] = assay: Basal PI 3-kinase activity of the liver of obese Zucker rats (fa/fa) after chronic administration; format: in vivo, rat; conditions: 50 mg/kg i.p. for 4 weeks, sacrificed 17 hours after last administration
Protocol: (§1) For the determination of the PI 3-kinase activity, the tissues are ground in a buffer containing protease and phosphatase inhibitors as well as a solubilising agent (Triton), as described by Taouis et al., J. Biol. Chem., 269, 14912, 1994. After solubilisation, the supernatants are immunoprecipitated with anti-IRS-1 and the PI 3-kinase activity is measured in the immunoprecipitate. In fact, the reaction is initiated by the addition of an artificial substrate of the enzyme: phosphatidylinositol (PI) and (^33P) gamma ATP. The product of the reaction is subjected to thin layer chromatography (TLC plate) and the levels of phosphorylation of PI are measured by a STORM phospho-imager (Molecular Dynamics). The activity is expressed in arbitrary units given by the apparatus (conversion of the radioactivity to luminescence by means of a laser beam). During chronic administration for 4 weeks of 4-OH-Ile (50 mg/kg by intraperitoneal route) in obese Zucker rats (fa/fa), the PI 3-kinase activity of the liver was measured at the end of the treatment.

insulin receptor = assay: Bonding of insulin on its receptor in hepatic LMH cell lines; format: binding; conditions: LMH cells (chicken hepatocarcinoma), competition with insulin
From the text: FIG. 4, the bonding of insulin on its receptor in hepatic LMH cell lines, In FIG. 4 the comparative results concerning the bonding of isoleucine and 4-OH-Ile are given. The LMH cells used in these trials are from chicken hepatocarcinoma (Kawaguchi T. et al., Cancer Res., 47, 4460, 1987).

PI 3-kinase [3] = assay: PI 3-kinase activity of the liver (anti-IRS-1 immunoprecipitates), normal rats; format: in vivo, rat; conditions: normal Wistar rats, i.p., insulin 100 U/kg, 4-OH-Ile 18 mg/kg, 15 min after injection; p<0.05
Protocol: (§2) The PI 3-kinase activity was measured on immunoprecipitates carried out with the anti-IRS-1 antibody. This made it possible to determine the enzymatic activity associated with the action of insulin and to compare it to the action induced by 4-OH-Ile. Normal male Wistar rats (IFFA CREDO strain, France) received, via intraperitoneal injection, either ordinary insulin on its own (100 U/kg) or 4-OH-Ile on its own (18 mg/kg), or insulin combined with 4-OH-Ile in the same doses. The control rats received sodium chloride at 9‰ via intraperitoneal route. Fifteen minutes after the injection, the animals were sacrificed and the peripheral tissues (liver, muscle) were immediately removed and frozen in liquid nitrogen. […] After solubilisation, the supernatants are immunoprecipitated with anti-IRS-1 and the PI 3-kinase activity is measured in the immunoprecipitate. […] The product of the reaction is subjected to thin layer chromatography (TLC plate) and the levels of phosphorylation of PI are measured by a STORM phospho-imager (Molecular Dynamics). The activity is expressed in arbitrary units given by the apparatus (conversion of the radioactivity to luminescence by means of a laser beam).

[4] = Basal insulinemia and glycemia during chronic administration in type 2 diabetic rats; format: in vivo, rat
Protocol: The beneficial effect of 4-hydroxyisoleucine against relative hyperinsulinemia has been researched in vivo during chronic administration (for one month) of plant amino acid (25 mg/kg/day, by intraperitoneal route) on rats made non insulin dependant diabetic (type 2 diabetes) by joint injections of nicotinamide and streptozotocin (Masiello et al., Diabetes, 47, 224, 1998). Regular blood samples are taken from the caudal vein of the rats made it possible to evaluate the level of plasmatic insulin using a radio-immunological method (Herbert et al., J. Clin. Endocr., 25. 1375, 1965), 15 hours after injection of the product which took place at 5.30 pm. In these same samples, the plasmatic glucose level was measured using an enzymatic method (Trinder P., J. Clin. Pathol. 22, 158, 1969).

insulin receptor (IR) = assay: Phosphorylation of the insulin receptor in the liver of normal rats; format: in vivo; conditions: normal rat liver, single injection 200 μg/kg I.P.; comparable to insulin
[5] = tested on: PI 3-kinase associated with the insulin receptor; assay: PI 3-kinase activity associated with the insulin receptor in the liver of a normal rat; format: in vivo; conditions: 18 mg/kg I.P., p<0.05
Protocol: as §1, with “The PI 3-kinase activities of the PDGF receptor and of the insulin receptor in the presence or the absence” for “During chronic administration for 4 weeks”, “(18” for “(50”, “I.P.) were compared following” for “by intraperitoneal route) in obese Zucker rats (fa/fa),”, “protocol already described.” for “PI 3-kinase activity of the liver was measured at the end of the treatment.”

PI 3-kinase [6] = assay: PI 3-kinase activity of the liver in type 2 diabetic rats; format: in vivo, rat; conditions: liver of rats with type 2 diabetes; p<0.05 for 4-OH-Ile
Protocol: (§3) For the determination of the PI 3-kinase activity, the tissues are ground in a buffer containing protease and phosphatase inhibitors as well as a solubilising agent (Triton), as described by Taouis et al., J. Biol. Chem., 269, 14912, 1994. After solubilisation, the supernatants are immunoprecipitated with anti-IRS-1 and the PI 3-kinase activity is measured in the immunoprecipitate. In fact, the reaction is initiated by the addition of an artificial substrate of the enzyme: phosphatidylinositol (PI) and (^33P) gamma ATP. The product of the reaction is subjected to thin layer chromatography (TLC plate) and the levels of phosphorylation of PI are measured by a STORM phospho-imager (Molecular Dynamics). The activity is expressed in arbitrary units given by the apparatus (conversion of the radioactivity to luminescence by means of a laser beam). Comparison of the Effects of Insulin and Those of 4-OH-Ile on the PI 3-Kinase Activity of the Muscle and the Liver Removed from Rats with Type 2 Diabetes (Masiello et al., Diabetes 47, 224, 1998)

PI 3-kinase [7] = assay: PI 3-kinase activity of muscle (anti-IRS-1 immunoprecipitates), normal rats; format: in vivo, rat; conditions: normal Wistar rats, i.p., insulin 100 U/kg, 4-OH-Ile 18 mg/kg, 15 min after injection
Protocol: as §2

PI 3-kinase [8] = assay: PI 3-kinase activity of the muscle in type 2 diabetic rats; format: in vivo, rat; conditions: muscle of rats with type 2 diabetes; p<0.01 for 4-OH-Ile
Protocol: as §3

IRS-1 = assay: Phosphorylation of IRS-1 in the liver of normal rats; format: in vivo; conditions: normal rat liver, single injection 200 μg/kg I.P.; comparable to insulin

Molecule | solubility in water (Water solubility) | phosphatase activity associated with IRS-1 [1] | basal activity of PI 3-kinase of the liver (PI 3-kinase [2]) | bonding to the insulin membrane receptor of the hepatocyte (insulin receptor) | hepatic PI 3-kinase activity (PI 3-kinase [3]) | insulinemia (plasmatic insulin) ([4]; type 2 diabetic rats (nicotinamide/streptozotocin), 25 mg/kg/day i.p. for one month, 15 hours after injection) | glycemia ([4]; type 2 diabetic rats, 25 mg/kg/day i.p., at the end of the treatment) | plasmatic insulin after cessation of the treatment ([4]; type 2 diabetic rats, after cessation of 25 mg/kg/day i.p. treatment) | activation (phosphorylation) of the insulin receptor (IR) (insulin receptor (IR)) | PI 3-kinase activity associated with the insulin receptor [5] | hepatic PI 3-kinase activity (PI 3-kinase [6]) | PI 3-kinase activity of muscle (PI 3-kinase [7]) | muscular PI 3-kinase activity (PI 3-kinase [8]) | activation (phosphorylation) of IRS-1 (IRS-1)
CC(O)C(C)C(N)C(=O)O (stereo not drawn) [4-OH-Ile, 4-hydroxyisoleucine] | hydrosoluble | significantly inhibits | is increased | has no bond with this receptor; also recorded: does not recognise the insulin receptor | significantly stimulate | significantly lowering | slight reduction | again rises to regain values close to those observed before the treatment | induces the activation | the only one increased | the same effect as insulin with the same intensity; also recorded: significantly stimulates | has a comparable effect | the same effect as insulin with the same intensity; also recorded: significantly stimulates | induces the activation
insulin [reference compound] | – | – | – | – | significantly stimulate | – | – | – | – | – | activates | clearly stimulates | activates | –
